# Data as given in ChEMBL document CHEMBL6134874, “Identification of Nitric Oxide Donating Dasatinib Derivatives with Intraocular Pressure Lowering and Senolytic Activities” (J Med Chem, 2025).
# pIC50: −log10 of the molar value.
# Tested on: not listed separately
# Assay: Antiproliferative activity against mouse MEF cells assessed as inhibition of cell proliferation measured after 72 hrs by CCK-8 method
# Assay type: functional, cell-based
# Conditions: Mus musculus, MEF, 72 h
row,Structure (SMILES),pIC50
1,Cc1nc(Nc2ncc(C(=O)Nc3c(C)cccc3Cl)s2)cc(N2CCN(CCOC(=O)CCC(=O)OCCCO[N+](=O)[O-])CC2)n1,5.85
2,Cc1nc(Nc2ncc(C(=O)Nc3c(C)cccc3Cl)s2)cc(N2CCN(CCOC(=O)CCC(=O)OCCCCCO[N+](=O)[O-])CC2)n1,5.88
3,Cc1nc(Nc2ncc(C(=O)Nc3c(C)cccc3Cl)s2)cc(N2CCN(CCOC(=O)CCC(=O)OCCO[N+](=O)[O-])CC2)n1,5.76
4,Cc1nc(Nc2ncc(C(=O)Nc3c(C)cccc3Cl)s2)cc(N2CCN(CCOC(=O)COc3no[n+]([O-])c3C)CC2)n1,5.89
5,Cc1nc(Nc2ncc(C(=O)Nc3c(C)cccc3Cl)s2)cc(N2CCN(CCOC(=O)CCC(=O)OCCCCO[N+](=O)[O-])CC2)n1,5.75

# Same assay, conditions: mef
row,Structure (SMILES),pIC50
1,CS(=O)(=O)O.CS(=O)(=O)O.CS(=O)(=O)O.Cc1nc(Nc2ncc(C(=O)Nc3c(C)cccc3Cl)s2)cc(N2CCN(CCOC(=O)CCC(=O)OCCCCOc3no[n+]([O-])c3S(=O)(=O)c3ccccc3)CC2)n1,5.88
2,CS(=O)(=O)O.CS(=O)(=O)O.CS(=O)(=O)O.Cc1nc(Nc2ncc(C(=O)Nc3c(C)cccc3Cl)s2)cc(N2CCN(CCOC(=O)CCC(=O)OCCOCCOc3no[n+]([O-])c3S(=O)(=O)c3ccccc3)CC2)n1,5.91

# Tested on: not listed separately
# Assay: Inhibition of senescence in mouse MEF cells measured after 72 hrs by CCK-8 method
# Assay type: functional, cell-based
# Conditions: Mus musculus, MEF, 72 h
row,Structure (SMILES),pIC50
1,Cc1nc(Nc2ncc(C(=O)Nc3c(C)cccc3Cl)s2)cc(N2CCN(CCOC(=O)CCC(=O)OCCCO[N+](=O)[O-])CC2)n1,6.35
2,Cc1nc(Nc2ncc(C(=O)Nc3c(C)cccc3Cl)s2)cc(N2CCN(CCOC(=O)CCC(=O)OCCCCCO[N+](=O)[O-])CC2)n1,5.48
3,Cc1nc(Nc2ncc(C(=O)Nc3c(C)cccc3Cl)s2)cc(N2CCN(CCOC(=O)CCC(=O)OCCO[N+](=O)[O-])CC2)n1,6.39
4,Cc1nc(Nc2ncc(C(=O)Nc3c(C)cccc3Cl)s2)cc(N2CCN(CCOC(=O)COc3no[n+]([O-])c3C)CC2)n1,6.28
5,Cc1nc(Nc2ncc(C(=O)Nc3c(C)cccc3Cl)s2)cc(N2CCN(CCOC(=O)CCC(=O)OCCCCO[N+](=O)[O-])CC2)n1,5.97

# Same assay, conditions: mef
row,Structure (SMILES),pIC50
1,CS(=O)(=O)O.CS(=O)(=O)O.CS(=O)(=O)O.Cc1nc(Nc2ncc(C(=O)Nc3c(C)cccc3Cl)s2)cc(N2CCN(CCOC(=O)CCC(=O)OCCCCOc3no[n+]([O-])c3S(=O)(=O)c3ccccc3)CC2)n1,6.12
2,CS(=O)(=O)O.CS(=O)(=O)O.CS(=O)(=O)O.Cc1nc(Nc2ncc(C(=O)Nc3c(C)cccc3Cl)s2)cc(N2CCN(CCOC(=O)CCC(=O)OCCOCCOc3no[n+]([O-])c3S(=O)(=O)c3ccccc3)CC2)n1,6.42

# Tested on: not listed separately
# Assay: Senolytics index ratio of IC50 for antiproliferative activity against mouse MEF cells to IC50 for inhibition of senescence in mouse MEF cells
# Assay type: functional
# Conditions: not given
row,Structure (SMILES),Ratio IC50
1,Cc1nc(Nc2ncc(C(=O)Nc3c(C)cccc3Cl)s2)cc(N2CCN(CCOC(=O)CCC(=O)OCCCO[N+](=O)[O-])CC2)n1,3.13
2,Cc1nc(Nc2ncc(C(=O)Nc3c(C)cccc3Cl)s2)cc(N2CCN(CCOC(=O)CCC(=O)OCCCCCO[N+](=O)[O-])CC2)n1,0.4
3,CS(=O)(=O)O.CS(=O)(=O)O.CS(=O)(=O)O.Cc1nc(Nc2ncc(C(=O)Nc3c(C)cccc3Cl)s2)cc(N2CCN(CCOC(=O)CCC(=O)OCCCCOc3no[n+]([O-])c3S(=O)(=O)c3ccccc3)CC2)n1,1.76
4,Cc1nc(Nc2ncc(C(=O)Nc3c(C)cccc3Cl)s2)cc(N2CCN(CCOC(=O)CCC(=O)OCCO[N+](=O)[O-])CC2)n1,4.3
5,Cc1nc(Nc2ncc(C(=O)Nc3c(C)cccc3Cl)s2)cc(N2CCN(CCOC(=O)COc3no[n+]([O-])c3C)CC2)n1,2.45
6,Cc1nc(Nc2ncc(C(=O)Nc3c(C)cccc3Cl)s2)cc(N2CCN(CCOC(=O)CCC(=O)OCCCCO[N+](=O)[O-])CC2)n1,1.67
7,CS(=O)(=O)O.CS(=O)(=O)O.CS(=O)(=O)O.Cc1nc(Nc2ncc(C(=O)Nc3c(C)cccc3Cl)s2)cc(N2CCN(CCOC(=O)CCC(=O)OCCOCCOc3no[n+]([O-])c3S(=O)(=O)c3ccccc3)CC2)n1,3.25

# Tested on: not listed separately
# Assay: Toxicity in C57BL/6J mouse assessed as effect on discernible conjunctival hyperemia administered as 10 mM eye drop measured up to 4 hrs
# Conditions: in vivo, topical_or_ocular, 10000 µM
row,Structure (SMILES),Activity
1,CS(=O)(=O)O.CS(=O)(=O)O.CS(=O)(=O)O.Cc1nc(Nc2ncc(C(=O)Nc3c(C)cccc3Cl)s2)cc(N2CCN(CCOC(=O)CCC(=O)OCCOCCOc3no[n+]([O-])c3S(=O)(=O)c3ccccc3)CC2)n1,Non-toxic

# Tested on: Mus musculus
# Assay: Anti-glaucoma activity against magnetic microbead-induced ocular hypertensive COHT C57BL/6J mouse model assessed as intraocular pressure lowering efficacy administered as 10 mM eye drop measured after 4 hrs
# Assay type: functional
# Conditions: not given
row,Structure (SMILES),Activity
1,CS(=O)(=O)O.CS(=O)(=O)O.CS(=O)(=O)O.Cc1nc(Nc2ncc(C(=O)Nc3c(C)cccc3Cl)s2)cc(N2CCN(CCOC(=O)CCC(=O)OCCOCCOc3no[n+]([O-])c3S(=O)(=O)c3ccccc3)CC2)n1,3.6 mmHg
